Results published in patent US8937041B2, “Macrocyclic hepatitis C serine protease inhibitors” (AbbVie, Inc., priority 2010, dated 2015).

How the values were obtained:
[1] = molecular target: recombinant HCV NS3 protease, genotype 1b (Hepatitis C virus genotype 1b, UniProt Q9WMX2); experiment: biochemical; settings: genotype 1b NS3 protease; read-out: IC50 in a 1b enzyme assay
[2] = molecular target: recombinant HCV NS3 protease, genotype 1a (Hepatitis C virus genotype 1a, UniProt P27958); experiment: biochemical; settings: genotype 1a NS3 protease; read-out: IC50 in a 1a enzyme assay
HLM stability = assay type: in vitro ADME

Chain of recombinant HCV NS3 protease, genotype 1b (Q9WMX2 1027-1657, other chains not shown): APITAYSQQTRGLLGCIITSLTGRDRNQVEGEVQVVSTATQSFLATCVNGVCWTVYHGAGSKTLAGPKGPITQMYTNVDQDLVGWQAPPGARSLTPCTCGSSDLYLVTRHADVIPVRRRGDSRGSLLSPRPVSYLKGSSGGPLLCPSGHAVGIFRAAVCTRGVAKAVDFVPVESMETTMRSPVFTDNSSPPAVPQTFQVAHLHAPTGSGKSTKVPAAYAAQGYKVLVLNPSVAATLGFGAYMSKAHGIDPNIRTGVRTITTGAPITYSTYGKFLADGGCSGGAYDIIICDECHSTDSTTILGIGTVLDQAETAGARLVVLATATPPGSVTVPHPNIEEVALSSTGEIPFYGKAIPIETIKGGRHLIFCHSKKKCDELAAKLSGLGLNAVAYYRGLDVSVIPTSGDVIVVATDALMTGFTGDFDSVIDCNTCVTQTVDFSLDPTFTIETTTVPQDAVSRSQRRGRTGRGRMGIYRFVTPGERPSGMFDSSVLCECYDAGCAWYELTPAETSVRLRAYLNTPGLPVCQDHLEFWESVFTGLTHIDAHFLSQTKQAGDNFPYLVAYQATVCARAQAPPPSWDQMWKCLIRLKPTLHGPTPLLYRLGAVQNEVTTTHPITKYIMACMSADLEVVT
Chain of recombinant HCV NS3 protease, genotype 1a (P27958 1027-1657, other chains not shown): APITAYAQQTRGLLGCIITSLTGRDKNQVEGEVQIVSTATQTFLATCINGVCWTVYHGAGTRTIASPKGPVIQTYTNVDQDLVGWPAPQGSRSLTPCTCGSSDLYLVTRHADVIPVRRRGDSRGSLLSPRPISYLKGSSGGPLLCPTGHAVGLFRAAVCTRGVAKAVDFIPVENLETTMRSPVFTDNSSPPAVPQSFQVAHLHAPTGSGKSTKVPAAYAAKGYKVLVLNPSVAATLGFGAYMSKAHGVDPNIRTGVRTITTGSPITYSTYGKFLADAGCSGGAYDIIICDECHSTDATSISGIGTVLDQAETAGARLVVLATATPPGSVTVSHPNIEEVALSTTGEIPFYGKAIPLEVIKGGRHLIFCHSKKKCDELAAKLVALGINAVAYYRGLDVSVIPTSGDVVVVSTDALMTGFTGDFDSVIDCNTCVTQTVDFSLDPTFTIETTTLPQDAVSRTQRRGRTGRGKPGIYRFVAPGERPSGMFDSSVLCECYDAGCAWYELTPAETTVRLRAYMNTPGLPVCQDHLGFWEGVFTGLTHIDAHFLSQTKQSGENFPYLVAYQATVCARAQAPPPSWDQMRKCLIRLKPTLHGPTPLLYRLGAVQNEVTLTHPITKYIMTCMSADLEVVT

| IC50 [1] [nM] | IC50 [2] [nM] | HLM stability value (HLM stability) [µL/min/mg] | SMILES |
| --- | --- | --- | --- |
| 0.1 to 0.5 | 0.1 to 0.5 | – | Cc1cc(C(=O)N[C@H]2CCCCCC(F)(F)C[C@@H]3C[C@@]3(C(=O)NS(=O)(=O)C3CC3)NC(=O)[C@@H]3C[C@@H](Oc4nc5ccccc5nc4-c4cc5ccccc5o4)CN3C2=O)no1 [Example 16, N-((2R,6S,13aS,14aR,16aS)-2-(3-(benzofuran-2-yl)quinoxaline-2-yloxy)-14a-(cyclopropylsulfonylcarbamoyl)-12,12-difluoro-5,16-dioxooctadecahydrocyclopropa[e]pyrrolo[1,2-a][1,4]diazacyclopentadecin-6-yl)-5-methylisoxazole-3-carboxamide] |
| – | – | < 50 | Cc1cnc(C(=O)N[C@H]2CCCCCC(F)(F)C[C@@H]3C[C@@]3(C(=O)NS(=O)(=O)C3CC3)NC(=O)[C@@H]3C[C@@H](Oc4nc5ccccc5c5ccccc45)CN3C2=O)cn1 [Example 20, (2R,6S,13aS,14aR,16aS)-N-(cyclopropylsulfonyl)-12,12-difluoro-6-(5-methylpyrazine-2-carboxamido)-5,16-dioxo-2-(phenanthridin-6-yloxy)octadecahydrocyclopropa[e]pyrrolo[1,2-a][1,4]diazacyclopentadecine-14a-carboxamide] |
| – | – | < 50 | Cc1cc(C(=O)N[C@H]2CCCCCC(F)(F)C[C@@H]3C[C@@]3(C(=O)NS(=O)(=O)C3CC3)NC(=O)[C@@H]3C[C@@H](Oc4nc5ccccc5c5ccccc45)CN3C2=O)nn1C [Example 21, (2R,6S,13aS,14aR,16a5)-N-(cyclopropylsulfonyl)-6-(1,5-dimethyl-1H-pyrazole-3-carboxamido)-12,12-difluoro-5,16-dioxo-2-(phenanthridin-6-yloxy)octadecahydrocyclopropa[e]pyrrolo[1,2-a][1,4]diazacyclopentadecine-14a-carboxamide] |

Continued, molecule first:

| SMILES | IC50 [1] [nM] | IC50 [2] [nM] | HLM stability value (HLM stability) [µL/min/mg] |
| --- | --- | --- | --- |
| CC(C)(C)OC(=O)N[C@H]1CCCCCC(F)(F)C[C@@H]2C[C@@]2(C(=O)NS(=O)(=O)C2CC2)NC(=O)[C@@H]2C[C@@H](Oc3nc4ccccc4nc3-c3ccccc3)CN2C1=O [Example 5, tert-butyl (2R,6S ,13aS,14aR,16aS)-14a-(cyclopropylsulfonylcarbamoyl)-12,12-difluoro-5,16-dioxo-2-(3-phenylquinoxalin-2-yloxy)octadecahydrocyclopropa[e]pyrrolo[1,2-a][1,4]diazacyclopentadecin-6-ylcarbamate] | 0.5 to 1 | 0.5 to 1 | – |
| Cc1cc(C(=O)N[C@H]2CCCCCC(F)(F)C[C@@H]3C[C@@]3(C(=O)NS(=O)(=O)C3CC3)NC(=O)[C@@H]3C[C@@H](Oc4cnc5ccccc5n4)CN3C2=O)no1 [Example 2, N-((2R,6S,13aS,14aR,16aS)-14a-(cyclopropylsulfonylcarbamoyl)-12,12-difluoro-5,16-dioxo-2-(quinoxalin-2-yloxy)octadecahydrocyclopropa[e]pyrrolo[1,2-a][1,4]diazacyclopentadecin-6-yl)-5-methylisoxazole-3-carboxamide] | – | – | < 50 |
| Cc1cc(C(=O)N[C@H]2CCCCCC(F)(F)C[C@@H]3C[C@@]3(C(=O)NS(=O)(=O)C3CC3)NC(=O)[C@@H]3C[C@@H](Oc4nc5ccccc5nc4-c4ccccc4)CN3C2=O)no1 [Example 6, N-((2R,6S,13aS,14aR,16aS)-14a-(cyclopropylsulfonylcarbamoyl)-12,12-difluoro-5,16-dioxo-2-(3-phenylquinoxalin-2-yloxy)octadecahydrocyclopropa[e]pyrrolo[1,2-a][1,4]diazacyclopentadecin-6-yl)-5-methylisoxazole-3-carboxamide] | – | – | < 50 |
| Cc1cc(C(=O)N[C@H]2CCCCCC(F)(F)C[C@@H]3C[C@@]3(C(=O)NS(=O)(=O)C3CC3)NC(=O)[C@@H]3C[C@@H](Oc4nc5ccccc5nc4C)CN3C2=O)no1 [Example 4, N-((2R,6S,13aS,14aR,16aS)-14a-(cyclopropylsulfonylcarbamoyl)-12,12-difluoro-2-(3-methylquinoxalin-2-yloxy)-5,16-dioxooctadecahydrocyclopropa[e]pyrrolo[1,2-a][1,4]diazacyclopentadecin-6-yl)-5-methylisoxazole-3-carboxamide] | – | – | < 50 |
